The subject of assay [1] is genotype A, "Long" strain RSV. Briefly: RSV-A assay (CPE, ATPlite readout in Hep-2 cells). Format: cell-based. To be noted: human respiratory syncytial virus, HEp-2, Hep-2 cells, genotype A "Long" strain RSV, MOI 0.1; read-out: Human RSV-A (“Long” strain) EC50. An outline of the steps:
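Protection from RSV-induced cytopathic effect, measured as ATPlite luminescence after 5 days, gave EC50 values. Assay used genotype A Long strain at MOI 0.1 on Hep-2 cells seeded at 8,000/well in DMEM growth media with 10% FBS; compounds tested as 2-fold dilutions in duplicate.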
(In general: Cellular ATP, detected with luciferase, serves as a proxy for viable cell number.)

Assay [2] relates to recombinant HMPV CAN97-83 (MPV-GFP1). Nature of the assay: HMPV antiviral assay (MPV-GFP1 eGFP fluorescence in Vero E6 cells). The class given is cell-based. To be noted: human metapneumovirus, Vero C1008, 120 h, read-out: HMPV EC50. An outline of the steps:
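Vero E6 cells in serum-free OptiMEM with 0.5 μg/mL TPCK-trypsin infected with eGFP-expressing HMPV CAN97-83 (MPV-GFP1) at MOI 0.05. 8-point […] ½-step dilutions from 8 or 2 μM, 0.5% DMSO, 5 days at 32 °C. eGFP fluorescence normalized to infected untreated wells; EC50 from four-parameter logistic fit.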

What is called EC50 is the concentration giving half of the maximal effect. For `C[C@]1(C(N)=O)COc2c1cc([C@@](O)(CNC(=O)c1cc(Nc3cccnc3)c3ncccc3c1)C(F)(F)F)nc2-c1ccc(F)cc1` [Example 339], the figures for the EC50 in assay [1] and in assay [2] were under 0.2 µM and over 0.5 µM, respectively.
For `C[C@]1(C(N)=O)COc2c1cc([C@@](O)(CNC(=O)c1cc(Nc3ncncn3)c3ncccc3c1)C(F)(F)F)nc2-c1ccc(F)cc1` [Example 340] the same measures were under 0.2 µM and over 0.5 µM.
For `C[C@]1(C(N)=O)COc2c1cc([C@@](O)(CNC(=O)c1cc(Nc3cnccn3)c3ncccc3c1)C(F)(F)F)nc2-c1ccc(F)cc1` [Example 341] the same measures were under 0.2 µM and over 0.5 µM.
For `C[C@]1(C(N)=O)COc2c1cc([C@@](O)(CNC(=O)c1cc(Nc3cncnc3)c3ncccc3c1)C(F)(F)F)nc2-c1ccc(F)cc1` [Example 342] the same measures were under 0.2 µM and over 0.5 µM.
For the compound `C[C@]1(C(N)=O)COc2c1cc([C@@](O)(CNC(=O)c1cc(-c3cccnc3)c3ncccc3c1)C(F)(F)F)nc2-c1ccc(F)cc1` [Example 350], the concentration for a half-maximal effect (EC50) in assay [1] is under 0.2 µM; in assay [2], over 0.5 µM.
For `COc1cc(C(=O)NC[C@](O)(c2cc3c(c(-c4ccc(F)cc4)n2)OC[C@]3(C)C(N)=O)C(F)(F)F)cc2ccncc12` [Example 361] the same measures were under 0.2 µM and over 0.5 µM.
For `C[C@]1(C(N)=O)COc2c1cc([C@@](O)(CNC(=O)c1cc(OCC(N)=O)c3ncccc3c1)C(F)(F)F)nc2-c1ccc(F)cc1` [Example 364] the same measures were under 0.2 µM and over 0.5 µM.
Consider `Cc1cnc2c(OCC(N)=O)cc(C(=O)NC[C@](O)(c3cc4c(c(-c5ccc(F)cc5)n3)OC[C@]4(C)C(N)=O)C(F)(F)F)cc2c1` [Example 366], for which the EC50 in assay [1] was under 0.2 µM; in assay [2], over 0.5 µM.
On to `CN(C)C(=O)COc1cc(C(=O)NC[C@](O)(c2cc3c(c(-c4ccc(F)cc4)n2)OC[C@]3(C)C(N)=O)C(F)(F)F)cc2cccnc12` [Example 373], for which the EC50 in assay [1] was under 0.2 µM; in assay [2], over 0.5 µM.
For `CCCNC(=O)COc1cc(C(=O)NC[C@](O)(c2cc3c(c(-c4ccc(F)cc4)n2)OC[C@]3(C)C(N)=O)C(F)(F)F)cc2cccnc12` [Example 374] the same measures were under 0.2 µM and under 0.5 µM.
For `CC(C)(Oc1cc(C(=O)NC[C@](O)(c2cc3c(c(-c4ccc(F)cc4)n2)OC[C@]3(C)C(N)=O)C(F)(F)F)cc2cccnc12)C(N)=O` [Example 380] the same measures were under 0.2 µM and over 0.5 µM.
For `C[C@]1(C(N)=O)COc2c1cc([C@@](O)(CNC(=O)c1cc(NCC(N)=O)c3ncccc3c1)C(F)(F)F)nc2-c1ccc(F)cc1` [Example 384] the same measures were under 0.2 µM and over 0.5 µM.
Take `C[C@]1(C(N)=O)COc2c1cc([C@@](O)(CNC(=O)c1cc(Oc3cnccn3)c3ncccc3c1)C(F)(F)F)nc2-c1ccc(F)cc1` [Example 387]: the EC50 in assay [1] was under 0.2 µM; in assay [2], over 0.5 µM.
For `C[C@]1(C(N)=O)COc2c1cc([C@@](O)(CNC(=O)c1cc(Oc3ccncc3)c3ncccc3c1)C(F)(F)F)nc2-c1ccc(F)cc1` [Example 388] the same measures were under 0.2 µM and over 0.5 µM.
Consider `C[C@]1(C(N)=O)COc2c1cc([C@@](O)(CNC(=O)c1cc(OCc3ncco3)c3ncccc3c1)C(F)(F)F)nc2-c1ccc(F)cc1` [Example 390], for which the figures for the half-maximal effective concentration (EC50) in assay [1] and in assay [2] were under 0.2 µM and over 0.5 µM, respectively.
For `CC(=O)Nc1cc(C(=O)NC[C@](O)(c2cc3c(c(-c4ccc(F)cc4)n2)OC[C@]3(C)C(N)=O)C(F)(F)F)cc2cccnc12` [Example 393] the same measures were under 0.2 µM and under 0.5 µM.
For `Cc1nc(C(=O)Nc2cc(C(=O)NC[C@](O)(c3cc4c(c(-c5ccc(F)cc5)n3)OC[C@]4(C)C(N)=O)C(F)(F)F)cc3cccnc23)co1` [Example 397] the same measures were under 0.2 µM and over 0.5 µM.
For `C[C@]1(C(N)=O)COc2c1cc([C@@](O)(CNC(=O)c1cc(NC(=O)c3ncco3)c3ncccc3c1)C(F)(F)F)nc2-c1ccc(F)cc1` [Example 398] the same measures were under 0.2 µM and under 0.5 µM.
On to `C[C@]1(C(N)=O)COc2c1cc([C@@](O)(CNC(=O)c1cc(OC3CC3)c3nc(CO)ccc3c1)C(F)(F)F)nc2-c1ccc(F)cc1` [Example 406], for which the EC50 is under 0.2 µM in assay [1] and over 0.5 µM in assay [2].
For `C[C@]1(C(N)=O)COc2c1cc([C@@](O)(CNC(=O)c1cc(NC(N)=O)c3ncccc3c1)C(F)(F)F)nc2-c1ccc(F)cc1` [Example 408] the same measures were under 0.2 µM and over 0.5 µM.
For `CC1(NC(=O)Nc2cc(C(=O)NC[C@](O)(c3cc4c(c(-c5ccc(F)cc5)n3)OC[C@]4(C)C(N)=O)C(F)(F)F)cc3cccnc23)CC1` [Example 411], the EC50 in assay [1] is under 0.2 µM; in assay [2] it was under 0.5 µM.
`Cc1cnc2c(NC(=O)C3CC3)cc(C(=O)NC[C@](O)(c3cc4c(c(-c5ccc(F)cc5)n3)OC[C@]4(C)C(N)=O)C(F)(F)F)cc2c1` [Example 416]: the EC50 in assay [1] was under 0.2 µM; in assay [2], over 0.5 µM.
For `Cc1cnc2c(NC(=O)NC3CC3)cc(C(=O)NC[C@](O)(c3cc4c(c(-c5ccc(F)cc5)n3)OC[C@]4(C)C(N)=O)C(F)(F)F)cc2c1` [Example 417] the same measures were under 0.2 µM and under 0.5 µM.
For `Cc1cnc2c(NC(=O)c3coc(C)n3)cc(C(=O)NC[C@](O)(c3cc4c(c(-c5ccc(F)cc5)n3)OC[C@]4(C)C(N)=O)C(F)(F)F)cc2c1` [Example 418] the same measures were under 0.2 µM and under 0.5 µM.
For `Cc1nc2ccc(C(=O)NC[C@](O)(c3cc4c(c(-c5ccc(F)cc5)n3)OC[C@]4(C)C(N)=O)C(F)(F)F)cc2o1` [Example 424] the same measures were under 0.2 µM and under 0.5 µM.
For the compound `C[C@]1(C(N)=O)COc2c1cc([C@@](O)(CNC(=O)c1ccc3nc(N)sc3c1)C(F)(F)F)nc2-c1ccc(F)cc1` [Example 429], the EC50 in assay [1] was under 0.2 µM; in assay [2] it was over 0.5 µM.
For `Cc1nc2ccc(C(=O)NC[C@](O)(c3cc4c(c(-c5ccc(F)cc5)n3)OC[C@]4(C)C(N)=O)C(F)(F)F)cc2s1` [Example 430] the same measures were under 0.2 µM and under 0.5 µM.
For `COc1cc(C(=O)NC[C@](O)(c2cc3c(c(-c4ccc(F)cc4)n2)OC[C@]3(C)C(N)=O)C(F)(F)F)cc2sc(N)nc12` [Example 431] the same measures were under 0.2 µM and under 0.5 µM.
For `COc1cc(C(=O)NC[C@](O)(c2cc3c(c(-c4ccc(F)c(Cl)c4)n2)OC[C@]3(C)C(N)=O)C(F)(F)F)cc2sc(N)nc12` [Example 433] the same measures were under 0.2 µM and under 0.5 µM.
For `COc1nc2c(OC(C)C)cc(C(=O)NC[C@](O)(c3cc4c(c(-c5ccc(F)cc5)n3)OC[C@]4(C)C(N)=O)C(F)(F)F)cc2s1` [Example 444], the results for the EC50 in assay [1] and in assay [2] were under 0.2 µM and over 0.5 µM, respectively.
For `COc1nc2c(OC)cc(C(=O)NC[C@](O)(c3cc4c(c(-c5ccc(F)cc5)n3)OC[C@]4(C)C(N)=O)C(F)(F)F)cc2s1` [Example 445] the same measures were under 0.2 µM and under 0.5 µM.
For `COc1cc(C(=O)NC[C@](O)(c2cc3c(c(-c4ccc(F)cc4)n2)OC[C@]3(C)C(=O)NC2(C#N)CC2)C(F)(F)F)cc2cccnc12` [Example 451] the same measures were under 0.2 µM and under 0.5 µM.
For `CC(C)(O)[C@H](F)CNC(=O)[C@@]1(C)COc2c1cc([C@@](O)(CNC(=O)c1cc(OC3CC3)c3ncccc3c1)C(F)(F)F)nc2-c1ccc(F)cc1` [Example 459] the same measures were under 0.2 µM and over 0.5 µM.
`C[C@]1(C(=O)NCCOC(N)=O)COc2c1cc([C@@](O)(CNC(=O)c1cc(OC3CC3)c3ncccc3c1)C(F)(F)F)nc2-c1ccc(F)cc1` [Example 460]: the values for the EC50 in assay [1] and in assay [2] were under 0.2 µM and over 0.5 µM, respectively.
For `C[C@]1(C(=O)NCCCN)COc2c1cc([C@@](O)(CNC(=O)c1cc(OC3CC3)c3ncccc3c1)C(F)(F)F)nc2-c1ccc(F)cc1` [Example 464] the same measures were under 0.2 µM and over 0.5 µM.
For `C[C@]1(C(=O)NCCO)COc2c1cc([C@@](O)(CNC(=O)c1cc(OC3CC3)c3ncccc3c1)C(F)(F)F)nc2-c1ccc(F)cc1` [Example 465] the same measures were under 0.2 µM and under 0.5 µM.
For `C[C@]1(C(=O)N[C@H]2C[C@@H](O)C2)COc2c1cc([C@@](O)(CNC(=O)c1cc(OC3CC3)c3ncccc3c1)C(F)(F)F)nc2-c1ccc(F)cc1` [Example 466] the same measures were under 0.2 µM and under 0.5 µM.
For `C[C@]1(C(=O)NC2CC(O)C2)COc2c1cc([C@@](O)(CNC(=O)c1cc(OC3CC3)c3ncccc3c1)C(F)(F)F)nc2-c1ccc(F)cc1` (stereo partly shown) [Example 467], the values for the EC50 in assay [1] and in assay [2] were under 0.2 µM and under 0.5 µM, respectively.
For `CNC(=O)CNC(=O)[C@@]1(C)COc2c1cc([C@@](O)(CNC(=O)c1cc(OC3CC3)c3ncccc3c1)C(F)(F)F)nc2-c1ccc(F)cc1` [Example 473] the same measures were under 0.2 µM and over 0.5 µM.
`C[C@]1(C(=O)NCc2ccco2)COc2c1cc([C@@](O)(CNC(=O)c1cc(OC3CC3)c3ncccc3c1)C(F)(F)F)nc2-c1ccc(F)cc1` [Example 475]: the figures for the EC50 in assay [1] and in assay [2] were under 0.2 µM and under 0.5 µM, respectively.
For `C[C@]1(C(=O)NCCC(N)=O)COc2c1cc([C@@](O)(CNC(=O)c1cc(OC3CC3)c3ncccc3c1)C(F)(F)F)nc2-c1ccc(F)cc1` [Example 477] the same measures were under 0.2 µM and over 0.5 µM.

The record behind these values is patent US11505558B1, “Antiviral heterocyclic compounds” (Enanta Pharmaceuticals, Inc., priority 2019, dated 2022).
